Measurements as given in publication PMC12730060, “Design, Synthesis, and Antimalarial Evaluation of New Spiroacridine Derivatives” (Antibiotics, 2025).
Read-outs that look alike come from different tables or passages of the source.

Legend:
[1] = system: monkey kidney cells (Vero E6); assay: Cytotoxicity, MTT assay; assay type: cell-based; settings: for IC50: Primates, read-out: IC50 (μM) Vero E6
Experimental: In the following stages, to assess the selectivity of compounds against P. falciparum over mammalian cells, the cytotoxicity against monkey kidney cells (Vero E6) was determined through MTT assay after 72h of treatment. Also, the selectivity index (SI) of compounds was calculated by the ratio between a compound’s cytotoxicity against Vero E6 cells and its antiplasmodial activity (SI = Vero E6 IC50/P. falciparum IC50).
For this, monkey kidney cells (Vero E6) were seeded at a density of 5 × 10^3 cells/mL in 96-well plates and allowed to adhere for 6 h. Vero E6 cell line was obtained from the Cell Bank of Rio de Janeiro and cultured in DMEM media (Dulbecco’s Modified Eagle Medium) plus 10% inactivated fetal bovine serum (FBS) and 1% penicillin–streptomycin. Treatments were performed by adding 100 μL of medium solutions with test drugs, resulting in concentrations ranging from 12.5 to 100 µM (DMSO 1%, v/v). After 72 h of incubation at 37 °C and under 5% of CO2, the cultures were incubated with MTT at 0.5 mg/mL for 2 h. After this, the formazan crystals were dried in room temperature and dissolved in DMSO. Cell viability was determined by measuring the absorbance at 570 nm (Absorbance microplate reader EL800, BioTek, Winooski, VT, USA), and control wells containing DMSO at 1% were considered as 100% cell viability.

erythrocytes = system: erythrocytes; parameters: method as in PMID 40572185; settings: no cytotoxicity against erythrocytes up to this concentration; cited from earlier work
[2] = system: P. falciparum MRA-1240 (artemisinin-resistant); assay: microbe, parasite or virus in culture; assay type: cell-based; settings: Plasmodium falciparum, 72 h, read-out: IC50 (μM) MRA-1240
Experimental: (§1) Firstly, to prepare the samples for in vitro assays, each compound was dissolved in DMSO (Sigma-Aldrich®, Merck, Darmstadt, Germany), obtaining a solution of 5 mM, from which two other solutions, at 100 μM and 10 μΜ were prepared through dilution with RPMI-1640 medium (Invitrogen™, Carlsbad, CA, USA), supplemented with AlbuMAXII (Invitrogen™, Carlsbad, CA, USA). […] These cultures were obtained through BEI Resources, NIAID, NIH (MR4, ATCC®, Manassas, VA, USA), contributed by Andrew M. Talman, Robert E. Sinden, David Walliker, and Didier Ménard. The parasites were cultivated with 5% hematocrit at 37 °C and an atmosphere enriched with 5% of CO2 [54].
(§2) In order to accomplish this, unsynchronized cultures of 3D7-GFP, Dd2, and MRA-1240 were incubated at 1.2% hematocrit and 1.0% parasitemia with serial three-fold dilutions of the compounds, ranging from 10,000 nM to 0.17 nM, in 96-well flat-bottom plates for 72 h at 37 °C and 5% CO2. Parasite growth was quantified by flow cytometry (CytoFLEX, Beckman Coulter Life Sciences, Indianapolis, IN, USA) using GFP detection in a 96-well plate reader (Fl-1 channel) for the 3D7-GFP strain. The others (Dd2 and MRA-1240) were stained with SYBR Green I (20×), which is also detected at 488 nm. Data analysis was performed with FlowJo v10 software (FlowJo LLC, Ashland, OR, USA), and the half-maximal inhibitory concentrations (IC50) were calculated using GraphPad Prism 5 (trial version), with mean IC50 values obtained from at least two independent experiments, each conducted in triplicate.
(§3) All statistical analyses and graphical representations were performed using the GraphPad Prism 8.0 software package. Dose–response curves were generated by fitting the data to a nonlinear regression model [log(inhibitor) vs. response—variable slope]. […] The IC50 values were obtained from the fitted curves. Each experiment was carried out in triplicate and repeated independently, and results were expressed as mean ± standard deviation.

[3] = system: P. falciparum Dd2 (chloroquine-resistant); assay: microbe, parasite or virus in culture; assay type: cell-based; settings: Plasmodium falciparum, DD2, 72 h, read-out: IC50 (μM) Dd2
Experimental: as §1, §2, §3

[4] = system: P. falciparum 3D7-GFP (chloroquine-sensitive); assay: IC50 determination against asexual blood stages, flow cytometry (GFP); assay type: cell-based; settings: Plasmodium falciparum, 3D7, 72 h, read-out: IC50 (μM) 3D7-GFP
Experimental: as §1, §2, §3

P. falciparum 3D7-GFP = assay: Screening at fixed concentration against unsynchronized asexual blood stages, flow cytometry (GFP); assay type: cell-based; settings: Plasmodium falciparum, read-out: Inhibition (%) 10 μΜ
Experimental: In order to assess the antiplasmodial activity of the compounds, a screening with fixed concentrations at 10 μM was performed against unsynchronized cultures of the asexual blood stages of P. falciparum 3D7HT-GFP (hereafter referred to as 3D7-GFP). […] The JR intermediates were also evaluated in this assay in order to assess the relevance of the spiroacridine scaffold.
Firstly, to prepare the samples for in vitro assays, each compound was dissolved in DMSO (Sigma-Aldrich®, Merck, Darmstadt, Germany), obtaining a solution of 5 mM, from which two other solutions, at 100 μM and 10 μΜ were prepared through dilution with RPMI-1640 medium (Invitrogen™, Carlsbad, CA, USA), supplemented with AlbuMAXII (Invitrogen™, Carlsbad, CA, USA). In parallel, the parasite cultures used in the in vitro assays include the following P. falciparum strains: 3D7-GFP (MRA-1029, MR4, ATCC®, Manassas, VA, USA, chloroquine-sensitive, expressing Green Fluorescent Protein), Dd2 (MRA-150, ATCC®, Manassas, Virgínia, chloroquine-resistant), and IPC5202 (MRA-1240, ATCC®, Manassas, VA, USA, artemisinin-resistant). These cultures were obtained through BEI Resources, NIAID, NIH (MR4, ATCC®, Manassas, VA, USA), contributed by Andrew M. Talman, Robert E. Sinden, David Walliker, and Didier Ménard. The parasites were cultivated with 5% hematocrit at 37 °C and an atmosphere enriched with 5% of CO2 [54].
Then, to assess the antiplasmodial activity of the compounds, a screening assay was initially performed against the P. falciparum 3D7-GFP strain. For this, unsynchronized cultures were incubated in a 96-well flat-bottom plate at 1.2% hematocrit and 1.0% parasitemia, in the presence and absence of 1 μM and 10 μM of each compound, for 72 h at 37 °C and 5% CO2. […] Parasite growth was determined by flow cytometry (CytoFLEX, Beckman Coulter Life Sciences, Indianapolis, IN, USA) with a 96-well plate reader, using Fl-1 with an excitation wavelength of 488 nm for GFP detection. The flow cytometry data were analyzed with FlowJo v10 software (FlowJo LLC, Ashland, OR, USA) to calculate the percentage inhibition of compounds.

mice = system: mice; parameters: method as in PMID 31861795; settings: acute toxicity, OECD guidelines; cited from earlier work
P. falciparum 3D7 = settings: read-out: potency against P. falciparum 3D7; cited from earlier work
P. falciparum W2 = system: P. falciparum W2; parameters: method as in PMID 30366283; settings: read-out: IC50 against P. falciparum W2; cited from earlier work
[5] = Vero C1008, 72 h, MTT, 12.5 to 100 µM

SMILES | IC50 [2] | IC50 [3] | IC50 [4] | inhibition at 10 µM (P. falciparum 3D7-GFP; 3D7, 72 h) | also measured
N#CC1=CC2(c3ccccc3Nc3ccccc32)N(/N=C/c2ccccc2)C1=O [AMTAC-01] | 1.66 ± 0.08 µM | 1.37 ± 0.46 µM | 2.11 ± 0.6 µM | – | IC50 [1, 5]: > 100 µM; half-maximal hemolytic concentration (HC50) (erythrocytes): > 400 µM
COc1ccc(/C=N/N2C(=O)C(C#N)=CC23c2ccccc2Nc2ccccc23)cc1 [AMTAC-02] | 4.01 ± 0.17 µM | 3.12 ± 0.34 µM | 3.19 ± 0.49 µM | – | IC50 [1, 5]: > 100 µM; half-maximal hemolytic concentration (HC50) (erythrocytes): > 400 µM
N#CC1=CC2(c3ccccc3Nc3ccccc32)N(/N=C/c2ccc(Cl)cc2)C1=O [AMTAC-06] | – | – | – | 62.4 ± 8.9% | –
COc1cc(/C=N/N2C(=O)C(C#N)=CC23c2ccccc2Nc2ccccc23)cc(OC)c1OC [AMTAC-17] | 4.09 ± 0.05 µM | 3.29 ± 0.38 µM | 3.28 ± 0.49 µM | – | IC50 [1, 5]: > 100 µM; estimated Median Lethal Dose (LD50) (mice): greater than 5000 mg/kg
N#CC1=CC2(c3ccccc3Nc3ccccc32)N(/N=C/c2ccnc3ccccc23)C1=O [AMTAC-21, (E)-5′-oxo-1′-((quinolin-4-ylmethylene)amino)-1′,5′-dihydro-10H-spiro[acridine-9,2′-pyrrole]-4′-carbonitrile] | 4.07 ± 0.27 µM | 3.99 ± 0.23 µM | 3.78 ± 0.18 µM | – | IC50 [1, 5]: > 100 µM
N#CC1=CC2(c3ccccc3Nc3ccccc32)N(/N=C/c2c[nH]c3ccccc23)C1=O [AMTAC-22, (E)-1′-(((1H-indol-3-yl)methylene)amino)-5′-oxo-1′,5′-dihydro-10H-spiro[acridine-9,2′-pyrrole]-4′-carbonitrile] | 2.88 ± 0.3 µM | 2.34 ± 0.11 µM | 3.01 ± 0.52 µM | – | IC50 [1, 5]: > 100 µM; reduction in cell viability ([1]; at all concentrations evaluated (12.5–100 μM), 72 h): 15–20%
COc1cc(/C=N/N2C(=O)C(C#N)=CC23c2ccccc2Nc2ccccc23)cc(OC)c1O [AMTAC-24, (E)-1′-((4-hydroxy-3,5-dimethoxybenzylidene)amino)-5′-oxo-1′,5′-dihydro-10H-spiro[acridine-9,2′-pyrrole]-4′-carbonitrile] | – | – | – | 66.8 ± 10.8% | –
CCN(CC)CCCC(C)Nc1ccnc2cc(Cl)ccc12 (stereo not drawn) [CQ, chloroquine, reference compound] | 0.19 ± 0.07 µM | 0.26 ± 0.09 µM | 0.02 ± 0.01 µM | – | IC50 ([1]; Vero C1008, 72 h): > 100 µM; inhibition at 10 µM (P. falciparum 3D7-GFP; 72 h): 94.34 ± 0.54%
N#CCC(=O)N/N=C/c1ccc(Cl)cc1 [JR-06, (E)-N’-(4-chlorobenzylidene)-2-cyanoacetohydrazide] | – | – | – | 12.4 ± 1% | –
N#CCC(=O)N/N=C/c1ccccc1 [JR-09] | – | – | – | 14.8 ± 0.4% | –
COc1cc(/C=N/NC(=O)CC#N)cc(OC)c1OC [JR-10, (E)-2-cyano-N’-(3,4,5-trimethoxybenzylidene)acetohydrazide] | – | – | – | 12.6 ± 1.4% | –
COc1ccc(/C=N/NC(=O)CC#N)cc1 [JR-11, (E)-2-cyano-N’-(4-methoxybenzylidene)acetohydrazide] | – | – | – | 13.4 ± 1.4% | –
N#CCC(=O)N/N=C/c1ccnc2ccccc12 [JR-18] | – | – | – | 14.7 ± 7.2% | –
N#CCC(=O)N/N=C/c1c[nH]c2ccccc12 [JR-19] | – | – | – | 16.8 ± 5% | –
COc1cc(/C=N/NC(=O)CC#N)cc(OC)c1O [JR-28, (E)-2-cyano-N’-(4-hydroxy-3,5-dimethoxybenzylidene)acetohydrazide] | – | – | – | 5.5 ± 11.5% | –
CC(=O)N(O)CCCCCNC(=O)CCC(=O)N(O)CCCCCNC(=O)CCC(=O)N(O)CCCCCN [deferoxamine] | – | – | – | – | IC50 (P. falciparum 3D7): 27.6 µM
COc1cc(NC(C)CCCN)c2ncccc2c1 (stereo not drawn) [primaquine] | – | – | – | – | IC50 (P. falciparum 3D7): 9.4 µM; IC50 (P. falciparum W2): 1.7 µM
COc1cc(C)c2c(Oc3cccc(C(F)(F)F)c3)c(OC)cc(NC(C)CCCN)c2n1 (stereo not drawn) [tafenoquine] | – | – | – | – | IC50 (P. falciparum 3D7): 1.7 µM
